Measured values reported in US8563520B2, “Treatment of ocular disease with inhibitors of alpha2 macroglobulin protein” (McGill University, priority 2005, dated 2013).
Entries after “also recorded” stand apart in the source; their conditions may differ. Read-outs that look alike come from different tables or passages of the source.

Columns and labels:
retinal mRNA = conditions: day 28
Procedure: RNA preparation. Total RNA was isolated from retinal tissue using TRIZOL® (Life Technologies). Three retinas belonging to the same experimental group were pooled for the gene microarray experiment. RNA was then further purified using the RNAEASY® (QIAGEN®). The integrity of the RNA samples was assessed by running aliquots on RNA 6000 Nano LabChip (Agilent) using the 2100 bioanalyzer (Agilent).
Probe synthesis, hybridization and scanning were done according to Affymetrix protocol, as a service at the McGill University and Genome Quebec Innovation Centre. For the experiments shown, Rat U34 Genome Arrays (8,700 genes, Affymetrix) were used. Briefly, RNA samples were first converted to double stranded cDNA (T7-(dT)24 primer (Genset)). Then the cDNAs were purified and used to generate the biotinylated cRNA probes (Bioarray High Yield RNA transcript labeling kit (Enzo diagnostics)). An aliquot of the purified cRNA was analyzed on RNA 6000 Nano LabChip (Agilent) to verify the integrity and size distribution. Immediately after hybridization the chip was placed in the Affymetrix GeneChip Fluidics Station 400 (Affymetrix). In total, 10 low-stringency washes (63 SSPE, 0.01% Tween-20, 0.005% Antifoam) and 4 high-stringency washes (100 mM MES, 0.1 M NaCl, 0.01% Tween-20, 50 C) were performed (all reagents from Sigma). The array was then incubated with SAPE® (streptavidin/phycoerythrin stain, Molecular Probes), followed by 10 low stringency washes. The array was incubated with biotinylated anti-streptavidin antibody (Vector Laboratories) and washed again with 15 low stringency washes. Specifically bound probe was detected by placing the array in the Agilent GeneArray scanner 2500 (Affymetrix). The scanned images were analyzed using the Microarray Analysis Suite version 5.0 (Affymetrix). Statistical analyses were done with the help of the Kensington Discovery Edition version 1.8 (Inforsense).
Retinas were carefully dissected out to insure that only retinal mRNAs were prepared for gene microarray studies. Samples were obtained from sham operated eyes (normal IOP control, Group 1), eyes at 28 days high IOP (test, Group 2), and eyes 28 days after cauterization plus daily betaxolol treatment from day 3 onwards (Group 3). […] Samples from each of these groups (n=4 each group) were studied by gene microarrays (see FIG. 2 flowchart). A cutoff of 2.5-fold was used to afford significance (p<0.05).

[1] = system: retinal ganglion cells (RGCs); assay: RGC loss in high IOP (cauterization) glaucoma model, retrograde RGC labeling and counting; type: in vivo, rat; conditions: for RGC loss (% at day 42 vs normal): 14 days high, 28 normal IOP
Procedure: Episcleral cauterization of rat eyes was performed under anesthesia.
RGCs were labeled with 3% DII (1,1-dioctadecyl-3,3,3,3-tetramethylindocarbocyanine perchlorate) or with 3% fluorogold. Briefly, Wistar rats were anesthetized and their heads were mounted in a stereotactic apparatus.
7 days after dye injection, the vasculature of the rats were perfused-fixed (transcardiac perfusion in phosphate-buffer (PB), followed by 4% PFA in PB) and the eyes were enucleated. After post-fixing for 1 hour cuts were made through the sclera to form a Maltese cross pattern and retinas detached from the eyecup at the optic nerve head. The retinas were flat-mounted on glass slides (vitreous side up) air-dried and cover-slipped with mounting medium (Molecular Probes). The retinas were observed under fluorescence microscopy (Zeiss). […] RGCs were recognized in flat mounted retinas by the presence of retrogradely transported dye and by morphology. RGCs in all 4 quadrants (16 images per retina) were averaged and presented as […] of area counted.
A puncture was made on the eye wall with a 30 G needle to allow the entrance of a cannula in the […]. A glass cannula (10 μm thickness), prepared with an upright microelectrode puller (Narishige) was connected through plastic tubing to a Hamilton syringe to dispense solutions of anti-α2 macroglobulin rabbit antibody (Calbiochem), control PBS, or control rabbit antibody (Sigma). Injections were done at day 14 and 21 post-surgery (in sham-operated control eyes with normal IOP, and cauterized eyes with high IOP). The intraocular injections were in 2 μl volumes containing a total of 2 μg antibody. This amount was selected because in quantitative western blots of whole rat retina there was an estimated total of ˜1 μg of α2 macroglobulin in glaucomatous eyes (data not shown). Ocular pressure was not affected by intraocular injections, the high IOP eyes remained high IOP and the normal IOP eyes remained normal IOP (data not shown).
A second paradigm was used to confirm the role of α2 macroglobulin in RGC death. Neutralizing antibodies to α2 macroglobulin were injected intraocularly in glaucomatous eyes with high IOP to determine whether RGC death could be prevented. The experimental model was to induce high IOP for 14 days to trigger α2 macroglobulin over-expression and RGC damage, before the initiation of α2 macroglobulin neutralizing therapy. Neutralization was used as single therapy, or was combined with daily betaxolol treatment to better reflect the clinical setting in which glaucoma patients would be simultaneously treated with pressure-lowering drugs. Neutralizing antibodies were given at days 14 and 21 after cauterization, and surviving RGCs, identified by retrograde labeling, were counted at day 42 post-surgery. […]

α2 macroglobulin mRNA = conditions: betaxolol treatment; still significantly increased over normal IOP
Text: Retinas were dissected from eyes treated as indicated (n=3) and mRNAs were purified and studied by Northern blotting with labeled α2 macroclobulin or actin (control) probes.

rat eyes = conditions: for IOP of normal eyes: daily topical betaxolol 0.5% eye drops; for IOP of cauterized (high IOP) eyes: daily topical betaxolol 0.5% eye drops from day 3 post-cauterization
Procedure: Episcleral cauterization of rat eyes was performed under anesthesia. After a conjunctival incision, extra-ocular muscles were isolated and the major limbal draining veins were identified based on location, relative immobility, larger caliber and branching pattern. Cauterization of three episcleral vessels in the right eye was done with a 30″ cautery tip. The left eye in each animal was used as normal IOP control after sham-surgery (conjunctival incisions with no cauterization).
IOP was gauged using a Tonopen XL tonometer under light anesthesia (intramuscular injection of ketamine, […]; xylazine, 0.32 mg/kg; and acepromazine, 0.4 mg/kg).
A selective β-blocker (betaxolol 0.5%, Alcon) was applied daily as eye drops.

SMILES: CC(C)NCC(O)COc1ccc(CCOCC2CC2)cc1 (stereo not drawn) [betaxolol]
- Relative Change versus non-cauterized eyes, cauterized + betaxolol B (retinal mRNA; gene ATPase alpha-1 subunit (M74494)): 1.5
- Relative Change versus non-cauterized eyes, cauterized + betaxolol B (retinal mRNA; gene Amphiphysin 1 (Y13381)): −1.1
- Relative Change versus non-cauterized eyes, cauterized + betaxolol B (retinal mRNA; gene Amyloid precursor-like protein 2 (X77934)): 1.1
- Relative Change versus non-cauterized eyes, cauterized + betaxolol B (retinal mRNA; gene Asparagine synthase (U07201)): −1.1
- Relative Change versus non-cauterized eyes, cauterized + betaxolol B (retinal mRNA; gene B-2 arylamine N-acetyltransferase (U01347)): 1.5
- Relative Change versus non-cauterized eyes, cauterized + betaxolol B (retinal mRNA; gene Beta A3/A1 crystallin (X15143)): −1.1
- Relative Change versus non-cauterized eyes, cauterized + betaxolol B (retinal mRNA; gene Clone RKIAS43 (AA892520)): 2.9
- Relative Change versus non-cauterized eyes, cauterized + betaxolol B (retinal mRNA; gene Crybb2 (X83671)): −1.0
- Relative Change versus non-cauterized eyes, cauterized + betaxolol B (retinal mRNA; gene Cyclic nucleotide-gated cation channel (AJ000515)): 3.4
- Relative Change versus non-cauterized eyes, cauterized + betaxolol B (retinal mRNA; gene Gial fibrillary acidic protein (AF028784)): 1.4
- Relative Change versus non-cauterized eyes, cauterized + betaxolol B (retinal mRNA; gene Gzα (U77483)): 1.1
- Relative Change versus non-cauterized eyes, cauterized + betaxolol B (retinal mRNA; gene Helicase RAP 30 (L01267)): 1.2
- Relative Change versus non-cauterized eyes, cauterized + betaxolol B (retinal mRNA; gene PSD-95/SAP90-asociated protein-4 (U67140)): −1.0
- Relative Change versus non-cauterized eyes, cauterized + betaxolol B (retinal mRNA; gene Protein phosphatase 1 gamma (S78217)): 2.5
- Relative Change versus non-cauterized eyes, cauterized + betaxolol B (retinal mRNA; gene RBCK (AB011369)): 1.3
- Relative Change versus non-cauterized eyes, cauterized + betaxolol B (retinal mRNA; gene Ras-related p23 (X12535)): 1.1
- Relative Change versus non-cauterized eyes, cauterized + betaxolol B (retinal mRNA; gene Reggie1-1 (AF023302)): 1.8
- Relative Change versus non-cauterized eyes, cauterized + betaxolol B (retinal mRNA; gene Ribosomal protein L23-related product (U62635)): 3.8
- Relative Change versus non-cauterized eyes, cauterized + betaxolol B (retinal mRNA; gene S-adenosylmethionine synthase (J05571)): 1.1
- Relative Change versus non-cauterized eyes, cauterized + betaxolol B (retinal mRNA; gene SPARC (U75928)): 1.9
- Relative Change versus non-cauterized eyes, cauterized + betaxolol B (retinal mRNA; gene cDNA clone rx00382 (AI639155)): 7.2
- Relative Change versus non-cauterized eyes, cauterized + betaxolol B (retinal mRNA; gene cDNA clone rx01295 (AI639375)): 4.8
- Relative Change versus non-cauterized eyes, cauterized + betaxolol B (retinal mRNA; gene cDNA clone rx05013 (AI639441)): 2.8
- Relative Change versus non-cauterized eyes, cauterized + betaxolol B (retinal mRNA; gene α2 macroglobulin (M23566)): 5.6
- RGC loss (% at day 42 vs normal) ([1]; daily betaxolol days 14-42, no Ab injection): 19±1%
- RGC loss (% at day 42 vs normal) ([1]; daily betaxolol days 14-42, no Ab injection, listed as Betaxolol): 19 ± 1%
- RGC loss (% at day 42 vs normal) ([1]; daily betaxolol days 14-42 plus control serum days 14 and 21): 21 ± 5%
- rate of RGC loss ([1]; daily betaxolol, IOP normalized from day 7 onwards): reduces the rate of RGC loss, but does not prevent it; also recorded: reduced the average rate of RGC loss, but did not prevent it
- increase of retinal α2 macroglobulin mRNA at day 28 of high IOP (α2 macroglobulin mRNA): attenuated slightly
- IOP of normal eyes (rat eyes): no significant effect on normal IOP
- IOP of cauterized (high IOP) eyes (rat eyes): full normalization of IOP after 3 days
- IOP of cauterized (high IOP) eyes (rat eyes; listed as Betaxolol): fully normalized high IOP from day 7 onward
- IOP of normal eyes (rat eyes; listed as Betaxolol): no significant effect
